{"source": "patent US20250051391A1", "about": "“PEPTIDE INHIBITORS AND METHODS FOR INHIBITING PROTEIN AGGREGATION IN NEURONS AND NEURODEGENERATIVE DISEASES” (THE GOVERNING COUNCIL OF THE UNIVERSITY OF TORONTO, priority 2021, published 2025)", "key": {"Flag-CHMP2B": {"biological_target": "T1, Flag-CHMP2B (Homo sapiens, UniProt Q9UQN3)", "T1 construct": "expressed in transfected cells; host or cells: HEK293T", "assay": "Flag co-immunoprecipitation of GFP-peptides with Flag-CHMP2B", "type": "binding", "settings": "GFP-tagged peptides in HEK293T cells", "description": "(§1) HEK293T cells were co-transfected with Flag-tagged target protein, HA-tagged source protein, and GFP-tagged peptide or GFP. Cells were lysed 48 h after transfections with radioimmune precipitation assay buffer (50 mM Tris-HCl pH7.4, 1% Nonidet P-40, 150 mM NaCl, 1 mM EDTA, 10 mM Na3VO4, 10 mM sodium pyrophosphate, 25 mM NaF, 1× protease inhibitor mixture (Sigma)) for 30 min at 4° C. and coimmunoprecipitated with Flag beads (Clontech). The resulting immunocomplexes were analyzed by immunoblot using the appropriate antibodies. Protein samples were separated using 4-20% Mini-PROTEAN Tris-glycine gels (Bio-Rad) transferred to PVDF membranes and blocked in 5% milk containing PBS-Tween-20 (0.1%) for 1 h. PVDF membranes were then incubated with specified primary antibodies followed by incubation with horseradish peroxidase-conjugated secondary antibodies (Santa Cruz Biotechnology) and detected using enhanced chemiluminescence (GE Healthcare)."}, "A53T a-syn": {"test_system": "A53T a-syn", "assay": "a-syn protein levels by immunoblot in HEK293 cells", "type": "cell-based, human", "settings": "HEK293 cells expressing A53T a-syn", "description": "Infected or transfected cells were scraped from 6-well dishes and lysed with lysis buffer (50 mM Tris-HCl pH7.4, 1% Nonidet P-40, 150 mM NaCl, 1 mM EDTA, 1× protease inhibitor mixture (Sigma)) for 30 min at 4° C. The insoluble pellet was removed following a 10,000 rpm spin for 5 minutes at 4° C. Lysates were analyzed by SDS-PAGE/immunoblot using 4-20% Mini-PROTEAN Tris-glycine gels (Bio-Rad) transferred to PVDF membranes and blocked in 5% milk containing PBS-Tween-20 (0.1%) for 1 h. PVDF membranes were then incubated with specified primary antibodies followed by incubation with horseradish peroxidase-conjugated secondary antibodies (Santa Cruz Biotechnology) and detected using enhanced chemiluminescence (GE Healthcare)."}, "a-syn-CHMP2B interaction": {"biological_target": "T2, a-syn-CHMP2B interaction (Homo sapiens, UniProt Q9UQN3)", "T2 construct": "expressed in transfected cells; host or cells: HEK293T", "assay": "Co-immunoprecipitation: disruption of CHMP2B-A53T a-syn interaction", "type": "cell-based", "settings": "HEK293 cells; Flag-CHMP2B, HA-tagged A53T a-syn, GFP-tagged peptides", "description": "as §1"}, "WT a-syn oligomers": {"test_system": "WT a-syn oligomers", "assay": "Split luciferase a-syn oligomer/aggregation assay", "type": "cell-based, human", "settings": "cells stably expressing split luciferase WT a-syn constructs; GFP-peptide plasmids", "description": "tet-off cells stably expressing split luciferase a-syn constructs were trypsinized from subconfluent culture and seeded in a 96-well plate at a density of 15,000 cells per well. Cells were incubated overnight at 37° C. in 5% CO2. […] After 6 h of incubation, 20 μL of cell medium was transferred to a black flat-bottomed 96-well plate. 50 μL of Working solution (Pierce Gaussia-Firefly Luciferase Dual Assay Kit, Thermo Scientific #16181) was added into each well containing cell medium. Immediately after adding the reagent, samples were read using a luminometer with a 480 nm filter."}, "[1]": {"test_system": "HEK293 cells overexpressing WT or A53T a-syn", "assay": "Cell Titer-Glo cell viability assay in a-syn expressing cells", "type": "cell-based, human", "settings": "for cell viability / cytoprotective effect: HEK293 cells overexpressing WT or A53T a-syn, with or without MG132, expressed GFP-peptide or protein", "description": "Oligonucleotides encoding the specific peptides were synthesized and individually cloned into the pLJM1 nGFP lentiviral vector. Cells were infected with individual constructs, and cell viability was assessed using Cell Titer-Glo Luminescent assay (Promega) at 72 h post infection.\nCells were trypsinized from subconfluent cultures as described earlier, suspended in culture media, and then seeded into triplicate wells of a 96-well plate (100 μl well/1) at a density of 1.5×10^4 cells per well at standard culture conditions of 5% CO2 in air at 37° C. Cells were infected with lentivirus expressing peptide at an MOI of 5 for 72 h or transfected with plasmid for 72 h. Cell Titer-Glo reagent was added to each well (30 μL), according to the manufacturer's protocol and […]."}}, "note": "Ends that are not written are not given here."}
{"substance": "IPIQLKA [PDpep1, top hit of all screens; maps to CHMP2B residues 203-209]", "values": [{"measurement": "interaction with Flag-CHMP2B (co-immunoprecipitation)", "setting": "Flag-CHMP2B", "result": "interacted with Flag-CHMP2B"}, {"measurement": "a-syn protein levels by immunoblot", "setting": "A53T a-syn", "result": "reduction in a-syn levels"}, {"measurement": "disruption of a-syn-CHMP2B interaction (co-immunoprecipitation)", "setting": "a-syn-CHMP2B interaction", "result": "disrupted the a-syn-CHMP2B interaction"}, {"measurement": "a-syn oligomers measured by luciferase activity", "setting": "WT a-syn oligomers", "result": "reduce WT a-syn oligomers"}, {"measurement": "cell viability / cytoprotective effect", "setting": "[1]", "result": "cytoprotective effects"}]}
{"substance": "DEEIERQLKALG [PDpep1.3]", "values": [{"measurement": "interaction with Flag-CHMP2B (co-immunoprecipitation)", "setting": "Flag-CHMP2B", "result": "interacted with Flag-CHMP2B"}, {"measurement": "interaction with Flag-CHMP2B (co-immunoprecipitation)", "setting": "Flag-CHMP2B; listed as Pdpep1.3", "result": "binds to CHMP2B"}, {"measurement": "a-syn protein levels by immunoblot", "setting": "A53T a-syn", "result": "reduction in a-syn levels"}, {"measurement": "disruption of a-syn-CHMP2B interaction (co-immunoprecipitation)", "setting": "a-syn-CHMP2B interaction", "result": "most prominent disruption"}, {"measurement": "a-syn oligomers measured by luciferase activity", "setting": "WT a-syn oligomers", "result": "most prominent effects"}, {"measurement": "cell viability / cytoprotective effect", "setting": "[1]", "result": "most prominent effects on cell survival"}, {"measurement": "effect on cell viability under p62 knockdown", "setting": "[1]; HEK293 cells stably expressing p62 shRNA", "result": "not significantly affected"}, {"measurement": "cytoprotective effect under shRNA knockdown of CHMP2B, VPS4A and/or VPS4B", "setting": "[1]; cells stably expressing shRNAs", "result": "prevented by CHMP2B knockdown, but not by knockdown of VPS4A and/or VPS4B"}]}
